Data taken from US20240390328A1, “PHARMACEUTICAL COMPOSITION CONTAINING AS ACTIVE INGREDIENT COMPOUND CONJUGATED TO G4 STRUCTURES OF CORONAVIRUSES FOR PREVENTION OR TREATMENT OF CORONAVIRUS INFECTIOUS DISEASES” (priority 2020, published 2024).
Like-named read-outs stand apart in the source and are kept apart here.

What was measured:
[1] = tested on: SARS-COV-2; assay: microbe, parasite or virus in culture; format: cell-based; details: for IC50: read-out: IC50, suppressing SARS-COV-2 infection (N protein expression); for suppression of SARS-COV-2 infection (N protein expression), in words: 0.08 to 50 μM
[2] = tested on: HCoV-OC43; assay: HCoV-OC43 dose response curve analysis, virion production (plaque assay), HCT-8 cells; format: cell-based; details: 0.05 MOI, 72 hours after infection
[3] = tested on: SARS-COV-2 RNA G4, position 14947 (NsP12); assay: CD thermal melting analysis, G4 No. 12; format: binding; details: G4 No. 12, position 14947, NsP12; 15 μM RNA G4, 30 μM compound
Procedure: (§1) For melting, the samples were heated at 25 to 95° C. at 2° C./min with a data pitch of 0.5° C. CD melting analyses were performed with and without G4-binding compounds. The ratio of RNA: G4-binding compound was set to a molar ratio of 1:2. 15 μM RNA G4 was treated with 30 μM G4-binding compound and incubated at room temperature in a buffer comprising 10 mM Tris-HCl (pH 7.5) and 100 mM KCl for 30 minutes. Ellipticity was measured at 265 nm. Thereafter, data were normalized and plotted in OriginPro 2017 to calculate Tm values.
(§2) In addition, 15 μM RNA G4 was treated with 30 μM compound and incubated, and a CD thermal melting curve of RNA G4 (15 μM) was obtained in the presence or absence of the G4-binding compound. Furthermore, the effect of G4-binding compounds on the stability of SARS-COV-2 G4 was confirmed by measuring the difference in melting temperature (ΔTm). The results are illustrated in FIGS. 6A and 6B.

[4] = tested on: SARS-COV-2 RNA G4, position 1463 (NsP2); assay: CD thermal melting analysis, G4 No. 3; format: binding; details: G4 No. 3, position 1463, NsP2; 15 μM RNA G4, 30 μM compound
Procedure: as §1, §2

[5] = tested on: SARS-COV-2 RNA G4, position 10261 (NsP5); assay: CD thermal melting analysis, G4 No. 10; format: binding; details: G4 No. 10, position 10261, NsP5; 15 μM RNA G4, 30 μM compound
Procedure: as §1, §2

[6] = tested on: N1-WT-G4-353 (Nsp1 G4); assay: In-vitro transcription/translation (IVT) analysis, EYFP reporter western blot, N1-WT-G4-353; format: biochemical, SARS-COV-2
[7] = tested on: SARS-COV-2 RNA G4, position 4261 (NsP3); assay: CD thermal melting analysis, G4 No. 8; format: binding; details: G4 No. 8, position 4261, NsP3; 15 μM RNA G4, 30 μM compound
Procedure: as §1, §2

[8] = tested on: SARS-COV-2 RNA G4, position 25197 (Surface glycoprotein); assay: CD thermal melting analysis, G4 No. 19; format: binding; details: G4 No. 19, position 25197, Surface glycoprotein; 15 μM RNA G4, 30 μM compound
Procedure: as §1, §2

[9] = tested on: N1-WT-G4-644 (Nsp1 G4); assay: In-vitro transcription/translation (IVT) analysis, EYFP reporter western blot, N1-WT-G4-644; format: biochemical, SARS-COV-2; details: N1-WT-G4-644, compound at 5 μM
[10] = tested on: SARS-COV-2 RNA G4, position 1574 (NsP2); assay: CD thermal melting analysis, G4 No. 4; format: binding; details: G4 No. 4, position 1574, NsP2; 15 μM RNA G4, 30 μM compound
Procedure: as §1, §2

[11] = tested on: N1-WT-G4-3467 (Nsp3 G4); assay: In-vitro transcription/translation (IVT) analysis, EYFP reporter western blot, N1-WT-G4-3467; format: biochemical, SARS-COV-2; details: N1-WT-G4-3467, compound at 50 μM
[12] = tested on: SARS-COV-2; assay: microbe, parasite or virus in culture; format: cell-based; details: Vero cells, read-out: IC50, virion production
[13] = tested on: SARS-COV-2 RNA G4, position 18296 (NsP12); assay: CD thermal melting analysis, G4 No. 15; format: binding; details: G4 No. 15, position 18296, NsP12; 15 μM RNA G4, 30 μM compound
Procedure: as §1, §2

[14] = tested on: SARS-COV-2 RNA G4, position 28781 (Nucleocapsid protein); assay: CD thermal melting analysis, G4 No. 22; format: binding; details: G4 No. 22, position 28781, Nucleocapsid protein; 15 μM RNA G4, 30 μM compound
Procedure: as §1, §2

[15] = tested on: SARS-COV-2 RNA G4, position 3467 (NsP3); assay: CD thermal melting analysis, G4 No. 6; format: binding; details: G4 No. 6, position 3467, NsP3; 15 μM RNA G4, 30 μM compound
Procedure: as §1, §2

[16] = tested on: N1-Mut-G4-3467; format: biochemical, SARS-COV-2; details: N1-Mut-G4-3467, 5, 15, 25 and 50 μM
[17] = tested on: Vero cells; assay: Cell viability analysis (EZ Cytox), Vero cells; format: cell-based; details: up to 75 μM after 48 hours
Procedure: (§3) Human embryonic kidney (HEK293T) cells and Vero cells were maintained in high-glucose Dulbecco's Modified Eagle's Medium (DMEM) supplemented with 10% fetal bovine serum (FBS) and 1% penicillin-streptomycin, and cultured in a humidified incubator at 37° C. and 5% CO2.
(§4) Cytotoxicity was analyzed using an EZ Cytox assay kit (DogenBio, Korea). HEK293T and Vero cells were put into a 96-well plate at a density of 2×10^4 cells/well in a medium volume of 100 μl/well and cultured at 37° C. for 24 hours. After 24 hours, the cells were treated with the G4-binding compound at various concentrations (0.1, 0.5, 1, 2.5, 5.5, 7.5, 10, 25, 50, and 75 μM) and cultured at 37° C. for 24 hours or 48 hours. Cell viability (%) was calculated by measuring the absorbance value at 455 nm (Luminescence multi-mode microplate reader Synergy™ Neo2) and using the following Equation 1. All experiments were performed in triplicate, and cells untreated with the compound were used as a control. DMEM with the EZ Cytox reagent was used as a blank.
(§5) The toxicity of PDS and PhenDC3 was confirmed in HEK293T cells and Vero cells. The results are illustrated in FIGS. 7A to 7D.

[18] = tested on: HEK293T cells; assay: Cell viability analysis (EZ Cytox), HEK293T cells; format: cell-based, Human; details: at 75 µM, after 48 hours
Procedure: as §3, §4, §5

[19] = tested on: SARS-COV-2 RNA G4, position 353 (NsP1); assay: CD thermal melting analysis, G4 No. 1; format: binding; details: G4 No. 1, position 353, NsP1; 15 μM RNA G4, 30 μM compound
Procedure: as §1, §2

[20] = tested on: SARS-COV-2 RNA G4, position 26746 (Membrane protein); assay: CD thermal melting analysis, G4 No. 21; format: binding; details: G4 No. 21, position 26746, Membrane protein; 15 μM RNA G4, 30 μM compound
Procedure: as §1, §2

[21] = tested on: 25 G4s predicted for SARS-COV-2; assay: CD thermal melting analysis, comparison of ΔTm over all G4s; format: binding
[22] = tested on: SARS-COV-2 RNA G4, position 644 (NsP1); assay: CD thermal melting analysis, G4 No. 2; format: binding; details: G4 No. 2, position 644, NsP1; 15 μM RNA G4, 30 μM compound
Procedure: as §1, §2

[23] = tested on: SARS-COV-2 RNA G4, position 28903 (Nucleocapsid protein); assay: CD thermal melting analysis, G4 No. 23; format: binding; details: G4 No. 23, position 28903, Nucleocapsid protein; 15 μM RNA G4, 30 μM compound
Procedure: as §1, §2

[24] = tested on: SARS-COV-2 RNA G4, position 2714 (NsP2 + NsP3); assay: CD thermal melting analysis, G4 No. 5; format: binding; details: G4 No. 5, position 2714, NsP2 + NsP3; 15 μM RNA G4, 30 μM compound
Procedure: as §1, §2

[25] = Severe acute respiratory syndrome coronavirus 2, Vero cells, 0.0125 MOI, 24 hours

SMILES: CCC(CC)COC(=O)[C@H](C)N[P@](=O)(OC[C@H]1O[C@@](C#N)(c2ccc3c(N)ncnn23)[C@H](O)[C@@H]1O)Oc1ccccc1 [remdesivir, reference compound]
- IC50 ([1]; Severe acute respiratory syndrome coronavirus 2, Vero, 24 h): 8.78 µM

SMILES: CN(C)c1ccc(Nc2c3ccc(NC(=O)CCN4CCCC4)cc3nc3cc(NC(=O)CCN4CCCC4)ccc23)cc1 [BRACO19, N-[9-[4-(dimethylamino)anilino]-6-(3-pyrrolidin-1-ylpropanoylamino)acridin-3-yl]-3-pyrrolidin-1-ylpropanamide]
- suppression of SARS-COV-2 infection (N protein expression), in words ([1]; Vero cells): suppressed SARS-COV-2 infection at high concentrations

SMILES: C[n+]1ccc(-c2c3nc(c(-c4cc[n+](C)cc4)c4ccc([nH]4)c(-c4cc[n+](C)cc4)c4ccc([nH]4)c(-c4cc[n+](C)cc4)c4nc2C=C4)C=C3)cc1 [TMPyP4, 5,10,15,20-tetrakis(1-methylpyridin-1-ium-4-yl)-21,23-dihydroporphyrin]
- IC50 [2]: 2.8 µM

SMILES: C[n+]1ccccc1-c1c2nc(c(-c3cccc[n+]3C)c3ccc([nH]3)c(-c3cccc[n+]3C)c3nc(c(-c4cccc[n+]4C)c4ccc1[nH]4)C=C3)C=C2 [TMPyP2, 5,10,15,20-tetrakis(1-methylpyridin-1-ium-2-yl)-21,23-dihydroporphyrin]
- IC50 [2]: 11.7 µM

SMILES: Cc1cccc(C)c1OCC(=O)N[C@@H](Cc1ccccc1)[C@@H](O)C[C@H](Cc1ccccc1)NC(=O)[C@H](C(C)C)N1CCCNC1=O [lopinavir, reference compound]
- IC50 [1, 25]: 12.1 µM

SMILES: C[n+]1cc(NC(=O)c2ccc3ccc4ccc(C(=O)Nc5cc6ccccc6[n+](C)c5)nc4c3n2)cc2ccccc21 [PhenDC3, 2-N, 9-N-bis(1-methylquinolin-1-ium-3-yl)-1,10-phenanthroline-2,9-dicarboxamide]
- Tm in ° C. with compound [3]: 82.96 °C
- ΔTm [3]: 25.75 °C
- Tm in ° C. with compound [4]: 91.3 °C
- ΔTm [4]: 35.78 °C
- Tm in ° C. with compound [5]: 63.49 °C
- ΔTm [5]: 15.6 °C
- EYFP expression reduced by ([6]; N1-WT-G4-353, compound at 50 μM): 90%
- suppressing EYFP reporter expression ([6]; N1-WT-G4-353, concentrations less than 50 μM): not effective
- Tm in ° C. with compound [7]: 85.41 °C
- ΔTm [7]: 35.1 °C
- Tm in ° C. with compound [8]: 57.51 °C
- ΔTm [8]: −13.68 °C
- EYFP expression reduced by [9]: 50%
- Tm in ° C. with compound [10]: 47.74 °C
- ΔTm [10]: −5.64 °C
- reduction in EYFP expression [11]: 70%
- IC50 ([12]; 24 hours after infection): 24.5 µM
- IC50 ([12]; 48 hours after infection): 23.2 µM
- Tm in ° C. with compound [13]: 86.32 °C
- ΔTm [13]: 27.49 °C
- Tm in ° C. with compound [14]: 70.40 °C
- ΔTm [14]: 5.7 °C
- Tm in ° C. with compound [15]: 98.81 °C
- ΔTm [15]: 33.25 °C
- EYFP expression, concentration-dependent suppression [16]: not suppressed
- cytotoxicity in Vero cells [17]: no cytotoxicity was observed
- reduction in viability, HEK293T cells [18]: 25%
- Tm in ° C. with compound [19]: 82.00 °C
- ΔTm [19]: 10.41 °C
- Tm in ° C. with compound [20]: 79.68 °C
- ΔTm [20]: 17.02 °C
- effect on stability of SARS-COV-2 G4 (ΔTm), in words ([21]; 15 μM RNA G4, 30 μM compound, FIGS. 6A and 6B): significantly stabilized most G4s
- proportion of the G4s with ΔTm>20° C. ([21]; among the 25 G4s predicted for SARS-COV-2): 72%
- number of G4s Destabilized ([21]; of the 25 SARS-COV-2 G4s): 2
- Tm in ° C. with compound [22]: 71.44 °C
- ΔTm [22]: 23.71 °C
- Tm in ° C. with compound [23]: 60.21 °C
- ΔTm [23]: 3.1 °C
- Tm in ° C. with compound [24]: 91.7 °C
- ΔTm [24]: 20.56 °C

SMILES: CCC1=C(C)c2cc3[nH]c(cc4nc(cc5c(CC)c(C)c(cc1n2)n5C)C(C)=C4CCC(=O)O)c(CCC(=O)O)c3C [NMM, 3-[18-(2-carboxyethyl)-7,12-diethyl-3,8,13,17,22-pentamethyl-23H-porphyrin-2-yl]propanoic acid]
- suppression of SARS-COV-2 infection (N protein expression), in words ([1]; Vero cells): suppressed SARS-COV-2 infection at high concentrations
- IC50 [2]: 2.1 µM

SMILES: CCN(CC)CCCC(C)Nc1ccnc2cc(Cl)ccc12 (stereo not drawn) [chloroquine, reference compound]
- IC50 [1, 25]: 9.63 µM
